From ChEMBL document CHEMBL1201862, “PubChem BioAssay data set” (2004)
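Where inhibition never reached the appropriate level, the endpoint shown equals the highest concentration tested. Otherwise, values were interpolated linearly from a five-concentration, 48-hour dose response in 96-well plates. The concentration for 50% growth inhibition is given as GI50.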 Active and inactive are the calls of the source. No stated cut-off is given here; in the data, active = GI50 up to about 1.1 µM and inactive = higher.

How the values were obtained:
Experiment in all cases: growth of human tumour cells (NCI), 48 h
ACHN = tested on: ACHN
HL-60 = tested on: HL-60
HOP-62 = tested on: HOP-62
LOX IMVI = tested on: LOX IMVI
NCI-H226 = tested on: NCI-H226
NCI-H23 = tested on: NCI-H23
NCI-H460 = tested on: NCI-H460
OVCAR-5 = tested on: OVCAR-5
OVCAR-8 = tested on: OVCAR-8
RPMI-8226 = tested on: RPMI-8226
SF-268 = tested on: SF-268
SK-MEL-2 = tested on: SK-MEL-2
SN12C = tested on: SN12C
TK-10 = tested on: TK-10
UACC-257 = tested on: UACC-257
UACC-62 = tested on: UACC-62

Measured: GI50

O=C1C2Cc3ccccc3CN2C(=O)N1CN1CCN(CN2C(=O)C3Cc4ccccc4CN3C2=O)CC1 (centres undefined)
inactive: ACHN > 100 µM | HL-60 > 100 µM | HOP-62 > 100 µM | LOX IMVI > 100 µM | NCI-H226 > 100 µM | NCI-H23 > 100 µM | NCI-H460 > 100 µM | OVCAR-5 > 100 µM | OVCAR-8 > 100 µM | RPMI-8226 > 100 µM | SF-268 > 100 µM | SK-MEL-2 > 100 µM | SN12C > 100 µM | TK-10 > 100 µM | UACC-257 > 100 µM | UACC-62 > 100 µM

CC(C)(C)C1CCC2(CC1)c1[nH]c3ccccc3c1C1(CCC(C(C)(C)C)CC1)c1[nH]c3ccccc3c12 (centres undefined)
inactive: ACHN > 100 µM | HL-60 > 100 µM | HOP-62 > 100 µM | LOX IMVI > 100 µM | NCI-H226 > 100 µM | NCI-H23 > 100 µM | NCI-H460 > 100 µM | OVCAR-5 > 100 µM | OVCAR-8 > 100 µM | RPMI-8226 > 100 µM | SF-268 > 100 µM | SK-MEL-2 > 100 µM | SN12C > 100 µM | TK-10 > 100 µM | UACC-257 > 100 µM | UACC-62 > 100 µM

C/C(=N\N(C)C)C(CN1CCCCC1)C(c1ccccc1)c1c(O)c2ccccc2oc1=O (centres undefined)
inactive: ACHN > 100 µM | HL-60 > 100 µM | HOP-62 > 100 µM | LOX IMVI > 100 µM | NCI-H226 37.5 µM | NCI-H23 > 100 µM | NCI-H460 > 100 µM | OVCAR-5 > 100 µM | OVCAR-8 > 100 µM | RPMI-8226 > 100 µM | SF-268 > 100 µM | SK-MEL-2 > 100 µM | SN12C > 100 µM | TK-10 > 100 µM | UACC-257 > 100 µM | UACC-62 80.4 µM

COC(=O)C1=C(C)N(NC(N)=O)C2(N)N(NC(N)=O)C(C)=C(C(=O)OC)C12C#N (centres undefined)
inactive: ACHN > 100 µM | HL-60 > 100 µM | HOP-62 > 100 µM | LOX IMVI > 100 µM | NCI-H226 > 100 µM | NCI-H23 > 100 µM | NCI-H460 > 100 µM | OVCAR-5 > 100 µM | OVCAR-8 > 100 µM | RPMI-8226 > 100 µM | SF-268 > 100 µM | SK-MEL-2 > 100 µM | SN12C > 100 µM | TK-10 > 100 µM | UACC-257 > 100 µM | UACC-62 > 100 µM
